Assay results: ChEMBL document CHEMBL1156642, “Discovery of betamethasone 17alpha-carbamates as dissociated glucocorticoid receptor modulators in the rat” (Bioorg Med Chem, 2008)
Calls of active or inactive are those of the source. The calls are words filed in the database; no cut-off is given here.

Assays:
[1] = target: T1, Interstitial collagenase (Homo sapiens) (UniProt P03956); experiment: Inhibition of glucocorticoid-mediated human MMP1 expression in PMA stimulated A549 cells assessed as MMP1 protein level by ELISA relative to Dexamethasone; type: cell-based; parameters: scale not given: the % may be the effect or the level left
T1 sequence (whole entry): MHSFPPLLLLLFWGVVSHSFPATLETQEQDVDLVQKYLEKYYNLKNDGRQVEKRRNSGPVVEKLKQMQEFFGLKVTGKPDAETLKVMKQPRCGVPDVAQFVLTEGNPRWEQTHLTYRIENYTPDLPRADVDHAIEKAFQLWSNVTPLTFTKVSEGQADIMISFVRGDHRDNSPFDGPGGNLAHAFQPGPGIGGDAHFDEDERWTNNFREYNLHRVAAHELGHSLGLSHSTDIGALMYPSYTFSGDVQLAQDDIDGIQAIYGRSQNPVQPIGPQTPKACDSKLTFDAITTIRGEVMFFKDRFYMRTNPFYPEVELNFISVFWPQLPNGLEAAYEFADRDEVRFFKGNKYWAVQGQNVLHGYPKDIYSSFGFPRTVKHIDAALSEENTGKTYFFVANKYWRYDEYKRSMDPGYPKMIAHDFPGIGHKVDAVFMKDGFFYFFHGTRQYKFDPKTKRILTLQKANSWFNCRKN

Glucocorticoid receptor = target: T2, Glucocorticoid receptor (Homo sapiens, UniProt P04150)
T2 sequence (P04150 whole entry): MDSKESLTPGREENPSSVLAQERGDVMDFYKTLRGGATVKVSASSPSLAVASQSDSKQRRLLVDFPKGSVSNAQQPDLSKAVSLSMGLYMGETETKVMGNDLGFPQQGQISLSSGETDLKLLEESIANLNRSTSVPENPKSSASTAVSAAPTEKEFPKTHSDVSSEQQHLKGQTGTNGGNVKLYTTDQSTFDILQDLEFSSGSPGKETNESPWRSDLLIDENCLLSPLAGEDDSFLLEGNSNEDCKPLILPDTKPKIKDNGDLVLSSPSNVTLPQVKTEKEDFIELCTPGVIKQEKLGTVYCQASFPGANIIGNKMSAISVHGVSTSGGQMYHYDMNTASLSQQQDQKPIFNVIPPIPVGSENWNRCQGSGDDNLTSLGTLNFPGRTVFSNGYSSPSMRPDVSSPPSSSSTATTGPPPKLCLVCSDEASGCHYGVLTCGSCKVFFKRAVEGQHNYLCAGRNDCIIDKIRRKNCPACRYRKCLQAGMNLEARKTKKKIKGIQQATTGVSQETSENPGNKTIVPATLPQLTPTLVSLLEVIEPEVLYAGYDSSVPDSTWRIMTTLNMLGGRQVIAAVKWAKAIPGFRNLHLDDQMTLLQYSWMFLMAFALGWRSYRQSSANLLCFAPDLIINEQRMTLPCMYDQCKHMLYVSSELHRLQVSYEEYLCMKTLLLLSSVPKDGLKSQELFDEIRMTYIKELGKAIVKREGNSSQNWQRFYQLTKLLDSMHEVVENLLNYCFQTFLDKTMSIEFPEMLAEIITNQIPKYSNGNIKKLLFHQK
Description: Inhibition of human glucocorticoid receptor

Progesterone receptor = target: T3, Progesterone receptor (Homo sapiens, UniProt P06401); experiment: Inhibition of human progesterone receptor
T3 sequence (P06401 whole entry): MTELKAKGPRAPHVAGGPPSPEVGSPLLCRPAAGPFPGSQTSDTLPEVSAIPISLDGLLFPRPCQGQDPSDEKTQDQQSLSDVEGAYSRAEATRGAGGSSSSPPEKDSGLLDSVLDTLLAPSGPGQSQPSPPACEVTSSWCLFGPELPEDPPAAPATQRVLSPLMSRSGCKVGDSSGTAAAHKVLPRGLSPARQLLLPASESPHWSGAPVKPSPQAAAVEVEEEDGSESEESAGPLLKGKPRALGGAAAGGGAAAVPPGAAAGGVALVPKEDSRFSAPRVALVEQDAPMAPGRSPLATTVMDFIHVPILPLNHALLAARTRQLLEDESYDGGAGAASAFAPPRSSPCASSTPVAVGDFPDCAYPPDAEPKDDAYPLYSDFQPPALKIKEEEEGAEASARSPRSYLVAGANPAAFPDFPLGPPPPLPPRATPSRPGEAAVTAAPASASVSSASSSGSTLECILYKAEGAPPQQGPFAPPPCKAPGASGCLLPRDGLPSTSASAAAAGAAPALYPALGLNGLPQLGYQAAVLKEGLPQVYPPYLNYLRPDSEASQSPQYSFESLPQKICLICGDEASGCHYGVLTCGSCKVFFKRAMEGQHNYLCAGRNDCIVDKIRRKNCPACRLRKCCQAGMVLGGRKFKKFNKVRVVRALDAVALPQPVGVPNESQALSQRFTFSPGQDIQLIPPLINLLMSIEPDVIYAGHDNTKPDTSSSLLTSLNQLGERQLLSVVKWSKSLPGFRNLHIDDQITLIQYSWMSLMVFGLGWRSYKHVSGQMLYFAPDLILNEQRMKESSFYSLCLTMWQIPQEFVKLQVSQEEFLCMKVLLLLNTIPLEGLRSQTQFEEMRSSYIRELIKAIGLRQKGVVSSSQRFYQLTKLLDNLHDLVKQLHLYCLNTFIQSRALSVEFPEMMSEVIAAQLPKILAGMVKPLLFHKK

Rattus norvegicus [2] = species on record: Rattus norvegicus; experiment: Transactivation activity of glutamine synthase in rat skeletal muscle cells relative to Dexamethasone; type: cell-based
Rattus norvegicus [3] = experiment: Effect on plasma glucose level in Lewis rat with implanted cotton pellets at 10 mg/kg, po by oral glucose tolerance test; type: functional, organism-based; parameters: dose 10 mg/kg
Rattus norvegicus [4] = experiment: Effect on thymus weight in Lewis rat with implanted cotton pellets at 5.0 mg/kg, po bid; type: functional
Rattus norvegicus [5] = experiment: Effect on thymus weight in Lewis rat with implanted cotton pellets at 19 mg/kg, po bid; type: functional
Rattus norvegicus [6] = experiment: Effect on body weight change in Lewis rat with implanted cotton pellets at 10 mg/kg, po bid for 4 days; type: functional
Rattus norvegicus [7] = experiment: Effect on spleen weight in Lewis rat with implanted cotton pellets at 5.0 mg/kg, po bid; type: functional
Rattus norvegicus [8] = experiment: Effect on body weight change in Lewis rat with implanted cotton pellets at 19 mg/kg, po bid for 7 days; type: functional
Rattus norvegicus [9] = experiment: Effect on body weight change in Lewis rat with implanted cotton pellets at 10 mg/kg, po bid for 7 days; type: functional
Rattus norvegicus [10] = experiment: Effect on adrenal weight in Lewis rat with implanted cotton pellets at 19 mg/kg, po bid; type: functional
Rattus norvegicus [11] = experiment: Effect on spleen weight in Lewis rat with implanted cotton pellets at 19 mg/kg, po bid; type: functional
Rattus norvegicus [12] = experiment: Inhibition of granuloma formation in cotton pellet implanted Lewis rat at 19 mg/kg, po bid; type: functional
Rattus norvegicus [13] = experiment: Effect on body weight change in Lewis rat with implanted cotton pellets at 5.0 mg/kg, po bid for 7 days; type: functional
Rattus norvegicus [14] = experiment: Inhibition of granuloma formation in cotton pellet implanted Lewis rat at 5.0 mg/kg, po bid; type: functional
Rattus norvegicus [15] = experiment: Effect on body weight change in Lewis rat with implanted cotton pellets at 19 mg/kg, po bid for 4 days; type: functional
Rattus norvegicus [16] = experiment: Effect on body weight change in Lewis rat with implanted cotton pellets at 5.0 mg/kg, po bid for 4 days; type: functional
Rattus norvegicus [17] = experiment: Effect on spleen weight in Lewis rat with implanted cotton pellets at 10 mg/kg, po bid; type: functional
Rattus norvegicus [18] = experiment: Inhibition of granuloma formation in cotton pellet implanted Lewis rat at 10 mg/kg, po bid; type: functional
Rattus norvegicus [19] = experiment: Effect on plasma glucose level in Lewis rat with implanted cotton pellets at 19 mg/kg, po by oral glucose tolerance test; type: functional, organism-based; parameters: dose 19 mg/kg
Rattus norvegicus [20] = experiment: Effect on thymus weight in Lewis rat with implanted cotton pellets at 10 mg/kg, po bid; type: functional
Rattus norvegicus [21] = experiment: Effect on adrenal weight in Lewis rat with implanted cotton pellets at 5.0 mg/kg, po bid; type: functional
Rattus norvegicus [22] = experiment: Effect on adrenal weight in Lewis rat with implanted cotton pellets at 10 mg/kg, po bid; type: functional
[23] = Transactivation activity of glutamine synthase in rat skeletal muscle cells; type: cell-based

Structure (SMILES) | Activity [1] | IC50 (Glucocorticoid receptor) | IC50 (Progesterone receptor) | Activity (Rattus norvegicus [2]) | EC50 [23] | also measured
C[C@H]1C[C@H]2[C@@H]3CCC4=CC(=O)C=C[C@]4(C)[C@@]3(F)[C@@H](O)C[C@]2(C)[C@@]1(OC(=O)NCC(C)(C)C)C(=O)CO | 44.7% | 352 nM |  |  |  | 
C=CCNC(=O)O[C@]1(C(=O)CO)[C@@H](C)C[C@H]2[C@@H]3CCC4=CC(=O)C=C[C@]4(C)[C@@]3(F)[C@@H](O)C[C@@]21C | 106% | 17.4 nM | > 1000 nM | 16% |  | 
CCCNC(=O)O[C@]1(C(=O)CO)[C@@H](C)C[C@H]2[C@@H]3CCC4=CC(=O)C=C[C@]4(C)[C@@]3(F)[C@@H](O)C[C@@]21C | 103% | 3.6 nM | 394 nM | 34.7% |  | Activity (Rattus norvegicus [3]): Active; Activity (Rattus norvegicus [4]): 105.5 mg; Activity (Rattus norvegicus [5]): 82.9 mg; Activity (Rattus norvegicus [6]): 3.9 g; Activity (Rattus norvegicus [7]): 296.1 mg; Activity (Rattus norvegicus [8]): 6.6 g; Activity (Rattus norvegicus [9]): 7.1 g; Activity (Rattus norvegicus [10]): 25.6 mg; Activity (Rattus norvegicus [11]): 258 mg; inhibition in vivo at 19 mg/kg (Rattus norvegicus [12]): 51%; Activity (Rattus norvegicus [13]): 5 g; inhibition in vivo at 5 mg/kg (Rattus norvegicus [14]): 32.7%; Activity (Rattus norvegicus [15]): 3.9 g; Activity (Rattus norvegicus [16]): 1.1 g; Activity (Rattus norvegicus [17]): 274.3 mg; inhibition in vivo at 10 mg/kg (Rattus norvegicus [18]): 40%; Activity (Rattus norvegicus [19]): Active; Activity (Rattus norvegicus [20]): 91.4 mg; Activity (Rattus norvegicus [21]): 34.7 mg; Activity (Rattus norvegicus [22]): 34.6 mg
C[C@@H](NC(=O)O[C@]1(C(=O)CO)[C@@H](C)C[C@H]2[C@@H]3CCC4=CC(=O)C=C[C@]4(C)[C@@]3(F)[C@@H](O)C[C@@]21C)c1ccccc1 | 87.5% | 5.2 nM |  | 92% | 1.6 nM | 
C[C@H]1C[C@H]2[C@@H]3CCC4=CC(=O)C=C[C@]4(C)[C@@]3(F)[C@@H](O)C[C@]2(C)[C@@]1(OC(=O)NC1CCCC1)C(=O)CO | 76.1% | 3.8 nM |  | 23% |  | 
CCC(C)(C)NC(=O)O[C@]1(C(=O)CO)[C@@H](C)C[C@H]2[C@@H]3CCC4=CC(=O)C=C[C@]4(C)[C@@]3(F)[C@@H](O)C[C@@]21C | 65.9% | 55.1 nM |  | 35% |  | 
CCC(C)NC(=O)O[C@]1(C(=O)CO)[C@@H](C)C[C@H]2[C@@H]3CCC4=CC(=O)C=C[C@]4(C)[C@@]3(F)[C@@H](O)C[C@@]21C (stereo partly specified) | 97.5% | 0.5 nM |  | 54% | 0.3 nM | 
C[C@H]1C[C@H]2[C@@H]3CCC4=CC(=O)C=C[C@]4(C)[C@@]3(F)[C@@H](O)C[C@]2(C)[C@@]1(OC(=O)NC1CCCCC1)C(=O)CO | 82% |  | 120 nM | 24.7% |  | 
COC(=O)[C@H](C)NC(=O)O[C@]1(C(=O)CO)[C@@H](C)C[C@H]2[C@@H]3CCC4=CC(=O)C=C[C@]4(C)[C@@]3(F)[C@@H](O)C[C@@]21C | 107% | 28.6 nM |  | 103% | 47 nM | 
